# In ChEMBL document CHEMBL1145164, “2-Acetylamino-3-[4-(2-acetylamino-2-carboxyethylsulfanylcarbonylamino)- phenylcarbamoylsulfanyl]propionic acid and its derivatives as a novel class of glutathione reductase inhibitors” (J Med Chem, 2005):
# Key:
# Glutathione reductase [1] = target: T1, Glutathione reductase (Saccharomyces cerevisiae S288c, UniProt P41921); assay: Inhibition of yeast glutathione reductase over 30 minutes pH 7.4 at 25 degree C
# T1 sequence (P41921 whole entry): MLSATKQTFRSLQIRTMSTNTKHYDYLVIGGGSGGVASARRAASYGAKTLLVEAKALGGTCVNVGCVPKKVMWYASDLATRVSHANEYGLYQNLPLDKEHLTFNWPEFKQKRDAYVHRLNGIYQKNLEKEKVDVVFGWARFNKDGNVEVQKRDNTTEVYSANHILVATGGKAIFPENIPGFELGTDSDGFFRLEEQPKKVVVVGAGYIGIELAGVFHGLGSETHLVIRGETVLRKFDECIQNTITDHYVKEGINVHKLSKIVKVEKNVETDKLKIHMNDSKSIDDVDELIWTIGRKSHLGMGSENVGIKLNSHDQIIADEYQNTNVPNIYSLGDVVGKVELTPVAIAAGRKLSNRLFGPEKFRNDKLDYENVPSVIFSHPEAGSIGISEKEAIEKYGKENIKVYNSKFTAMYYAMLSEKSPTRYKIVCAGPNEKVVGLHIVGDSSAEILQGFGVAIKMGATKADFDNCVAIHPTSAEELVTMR
# [2] = target: T2, Glutathione S-transferase A1 (Homo sapiens) (UniProt P08263); assay: Inhibitory activity of compound against glutathione S-transferase; conditions: concentration not given here
# T2 sequence (whole entry): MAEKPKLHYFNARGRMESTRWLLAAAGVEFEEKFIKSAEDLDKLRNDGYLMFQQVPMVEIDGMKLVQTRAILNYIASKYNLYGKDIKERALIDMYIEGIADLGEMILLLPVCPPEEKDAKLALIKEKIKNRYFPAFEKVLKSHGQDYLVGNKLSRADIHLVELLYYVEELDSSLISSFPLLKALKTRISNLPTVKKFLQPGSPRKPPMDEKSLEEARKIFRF
# Glutathione reductase [3] = target: T1, Glutathione reductase; assay: Inhibition of yeast glutathione reductase done for 30 minutes in pH 7.4 at 25 degree C with compound (0.2 mM)
# Glutathione reductase [4] = target: T1, Glutathione reductase; assay: Inhibition of yeast glutathione reductase for 30 minutes pH 7.4 at 25 degree C at 0.2 mM
# [5] = target: T3, Glutathione reductase (Saccharomyces cerevisiae S288c) (UniProt P41921)
# T3 sequence (whole entry): T1 sequence (P41921 whole entry)
# Description: Kinact value for yeast glutathione reductase
IC50 (Glutathione reductase [1]) [µM],Compound,also measured
117,CC(=O)NC(CSC(=O)NCc1ccc(NC(=O)SCC(NC(C)=O)C(=O)O)cc1)C(=O)O (stereo unspecified),
477,CC(=O)NC(CSC(=O)NC1CCC(CC2CCC(NC(=O)SCC(NC(C)=O)C(=O)O)CC2)CC1)C(=O)O (stereo unspecified),
149,CC(=O)NC(CSC(=O)Nc1cccc(NC(=O)SCC(NC(C)=O)C(=O)O)c1)C(=O)O (stereo unspecified),
515,CC(=O)NC(CSC(=O)NCCCCNC(=O)SCC(NC(C)=O)C(=O)O)C(=O)O (stereo unspecified),
455,CC(=O)NC(CSC(=O)NCCCCCCNC(=O)SCC(NC(C)=O)C(=O)O)C(=O)O (stereo unspecified),
85,CC(=O)NC(CSC(=O)Nc1ccc(Cc2ccc(NC(=O)SCC(NC(C)=O)C(=O)O)cc2)cc1)C(=O)O (stereo unspecified),
,CC(=O)NC(CSC(=O)Nc1ccc(NC(=O)SCC(NC(C)=O)C(=O)O)cc1)C(=O)O (stereo unspecified),inhibition [2]: 13%; IC50 (Glutathione reductase [3]): 50 µM; Ki (Glutathione reductase [4]): 88 µM; Kinact [5]: 0.1 min⁻¹

Compound,IC50 (Glutathione reductase [1]) [µM],also measured
O=NN(CCCl)C(=O)NCCCl [CARMUSTINE],441,
